Measurements reported in US7368129B1, “Amphiphilic materials and liposome formulations thereof” (Nutrimed Biotech, priority 1996, dated 2008).

Test: X-ray diffraction of hydrated amphiphile and phosphatidylcholine mixtures at constant osmotic pressure
Format: physicochemical
Conditions: 20° C., constant osmotic pressure 1.6×10^5 dyne/cm^2; 20 mole percent Oleoyl-PEG(1500)-Oleoyl; pure SOPC = 0 mole % additive
Source text: Unoriented multilamellar fully hydrated lipid preparations in sealed glass capillaries held in a point collimated X-ray beam produce recordable “powder” diffraction patterns. The overall lamellar repeat period calculated from X-ray diffraction pattern comprises discernible double lipid chain thickness and interbilayer separation arising from the aqueous fluid in contact with the polar head groups. For osmotically stressed multilamellar preparations, the interbilayer separation decreases as a function of applied pressure and reaches a minimum approaching the closest contact for the head groups of the opposing phospholipids. […]
In the multilamellar vesicles prepared from phospholipid compositions doped with the novel amphiphiles, the bulky head group residues are expected to reside in and enlarge (widen) the interbilayer gap. Therefore, in comparative studies on preparations with and without a selected amphiphile, the interbilayer repeat distances are measured. In addition, the effect of osmotic pressures, produced by 4% PVP (up to ca. 1.6×10^5 dyne/cm^2), is evaluated. […]
X-ray diffraction was used to characterize the liposomes (MLVs) prepared in EXAMPLE 1 by hydration of selected novel amphiphile and PC mixtures. […] Osmotic pressures for PVP solutions are recorded in the literature (Parsegian et al., 1986). […]

With `CCCCCCCC/C=C\CCCCCCCC(=O)O[C@H](COC(=O)CCCCCCCCCCCCCCCCC)COP(=O)([O-])OCC[N+](C)(C)C` [SOPC, 1-stearoyl-2-oleoyl-sn-glycero-3-phosphocholine] the “lamellar repeat period d100 in SOPC as a function of mole percent additive” value was 58 Å.
